# Data as given in patent publication US20250034196A1, “ESTER DERIVATIVES OF N4-HYDROXYCYTIDINE AND USE THEREOF” (priority 2021, published 2025).
# Key:
# [1] = in vitro; format: in vitro ADME; settings: plasma
# Procedure: (§1) Preparation of Solutions: Stock solution (10 mM) of each of test compounds was prepared in DMSO. The stock solution for each compound was then diluted into 100 μM with acetonitrile.
# Plasma Incubations: Plasma incubations were conducted in duplicate in 96-well plate at 37° C. Plasma was prewarmed in a total volume of 198 μL for 5 min at 37° C., then added 2 μL of 100 μM test compound into an incubation well containing plasma, pipette-mixed to achieve a homogenous suspension and immediately transferred 20 μL incubate as a 0 min sample to wells in a “Quenching” plate followed by adding 200 μL of acetonitrile with metolazone as internal standard (IS) and pipette-mixing. At 2, 5, 60, and 90 min, pipette-mixed the incubate and serially transfer samples of 20 μL incubate per time point to wells in a separate “Quenching” plate followed by adding 200 μL of acetonitrile with metolazone as IS and pipette-mixing.
# (§2) Sample Analysis: The 96-well plate was centrifuged at 6000 g for 10 min. The supernatant was injected onto the LC-MS/MS system for analysis.
# [2] = in vitro; format: in vitro ADME; settings: microsomes, pH 7.4
# Procedure: as §1
# (§3) Microsome Incubations: Incubation mixtures were prepared in a total volume of 200 μL with final component concentrations as follows: 0.1M PBS (pH 7.4), NADPH (2 mM) and liver microsomes (0.2 mg/mL) as well as test compound (1 μM) or Molnupiravir (1 μM) as a positive control, wherein the NADPH was added after a 5-min preincubation of all other components at 37° C. Pipette-mixed to achieve a homogenous suspension and immediately transferred 20 μL incubate as a 0 min sample to wells in a “Quenching” plate followed by adding 200 μL of acetonitrile with metolazone as IS and pipette-mixing. At 2, 5, 10, and 45 min, pipette-mixed the incubate and serially transfer samples of 20 μL incubate per time point to wells in a separate “Quenching” plate followed by adding 200 μL of acetonitrile with metolazone as IS and pipette-mixing.
# as §2
# [3] = Microsome stability; format: in vitro ADME, Monkey; settings: Monkey liver microsomes 0.2 mg/mL, NADPH, 1 μM
# Procedure: as §1, §3, §2
# [4] = in vivo; parameters: species or system Beagle Dogs; settings: dog, po, 22 mg/kg; for AUC(0-inf): AUCINF of CH2107 (Molnupiravir); for AUC(0-t): AUClast of CH2107 (Molnupiravir); for Cmax: Cmax of CH2107 (Molnupiravir); for MRT inf: MRTINF of CH2107 (Molnupiravir); for half-life: T1/2 of CH2107 (Molnupiravir); for Tmax: Tmax of CH2107 (Molnupiravir)
# Procedure: Example 174: Pharmacokinetic Study of EX-2 (CH2101), Molnupiravir (CH2017) and its Metabolite NHC (CH2018) Following a Single PO Administration of EX-2 (CH2101) or Molnupiravir (CH2017) in Male and Female Beagle Dogs
# Both test compounds were prepared in 1% methyl cellulose (400 cps, SIGMA, SLCF9694) solution in purified water.
# A total of 6 male+6 female Beagle Dogs, approximately 7-13 kg of bodyweight, were originally purchased from Marshall Biotechnology Co., Ltd. The animals were fasted overnight prior to dosing and food was re-provided after 4 hours post dosing.
# The animals were restrained manually, and approximately 1 mL of blood at each time point was collected into pre-cooled EDTA-K2 tubes via cephalic or saphenous veins. Blood samples were centrifuged at 4° C. (4000 rpm. 5 min) to obtain plasma within 30 min after sample collection. All samples were stored at approximately −80° C. until analysis. The backup samples will be discarded after the in vivo experiment has been completed for two months unless requested.
# [5] = test system: SARS-CoV-2; settings: 800 mg twice a day for 5 days, early infected patients; cited from earlier work
# [6] = in vitro; settings: African green monkey
# [7] = both sexes, beagle, Plasma concentration of CH2107 (Molnupiravir)
# [8] = female, beagle, Plasma concentration of CH2107 (Molnupiravir)
# [9] = male, beagle, Plasma concentration of CH2107 (Molnupiravir)
smiles,measurement,setting,value
CC(C)C(=O)OC[C@H]1O[C@@H](n2ccc(NO)nc2=O)[C@H](O)[C@@H]1O [Molnupiravir],half-life at 1 µM,[1]; dog,39.4 min
same,half-life at 1 µM,[1]; human,66.2 min
same,half-life at 1 µM,[1]; monkey,25.8 min
same,half-life at 1 µM,[1]; mouse,25.8 min
same,half-life at 1 µM,[1]; rat,3.3 min
same,half-life at 1 µM,[2]; dog,3.9 min
same,half-life at 1 µM,[2]; human,71.3 min
same,half-life at 1 µM,[2]; mouse,5.6 min
same,half-life at 1 µM,[2]; rat,13.8 min
same,T1/2,[3],4.7 min
same,AUC(0-inf),"[4]; both sexes, Beagle",932 ng·h/mL
same,AUC(0-t),"[4]; both sexes, Beagle",930 ng·h/mL
same,Cmax,"[4]; both sexes, Beagle",1320 ng/mL
same,MRT inf,"[4]; both sexes, Beagle",38.9 min
same,half-life,"[4]; both sexes, Beagle",25.2 min
same,concentration at 0.083 hr,[4]; [7],496 ng/mL
same,concentration at 0.25 hr,[4]; [7],1300 ng/mL
same,concentration at 0.5 hr,[4]; [7],1010 ng/mL
same,concentration at 1 hr,[4]; [7],230 ng/mL
same,concentration at 2 hr,[4]; [7],28.2 ng/mL
same,concentration at 4 hr,[4]; [7],4.75 ng/mL
same,concentration at 6 hr,[4]; [7],5.45 ng/mL
same,concentration at 8 hr,[4]; [7],1.08 ng/mL
same,Tmax,"[4]; both sexes, beagle",18.8 min
same,AUCmale/female of CH2107 (Molnupiravir),"[4]; both, Beagle",171%
same,AUCmale/female of EX-1/NHC/CH2018,"[4]; both, Beagle",128%
same,Plasma concentration of EX-1/NHC/CH2018,"[4]; both, Beagle, 0.083 hr",527 ng/mL
same,Plasma concentration of EX-1/NHC/CH2018,"[4]; both, Beagle, 0.25 hr",5653 ng/mL
same,Plasma concentration of EX-1/NHC/CH2018,"[4]; both, Beagle, 0.5 hr",8040 ng/mL
same,Plasma concentration of EX-1/NHC/CH2018,"[4]; both, Beagle, 1 hr",8648 ng/mL
same,Plasma concentration of EX-1/NHC/CH2018,"[4]; both, Beagle, 2 hr",4038 ng/mL
same,Plasma concentration of EX-1/NHC/CH2018,"[4]; both, Beagle, 4 hr",970 ng/mL
same,Plasma concentration of EX-1/NHC/CH2018,"[4]; both, Beagle, 6 hr",244 ng/mL
same,Plasma concentration of EX-1/NHC/CH2018,"[4]; both, beagle, 8 hr",105 ng/mL
same,Plasma concentration of EX-1/NHC/CH2018,"[4]; both, beagle, 24 hr",18.4 ng/mL
same,AUCINF of CH2107 (Molnupiravir),"[4]; female, Beagle",778 ng·h/mL
same,AUClast of CH2107 (Molnupiravir),"[4]; female, Beagle",778 ng·h/mL
same,AUC(0-inf),"[4]; female, Beagle",598 ng·h/mL
same,AUC(0-t),"[4]; female, Beagle",596 ng·h/mL
same,Cmax,"[4]; female, Beagle",1080 ng/mL
same,Plasma concentration of CH2107 (Molnupiravir),"[4]; female, beagle, 0.5 hr",693 ng/mL
same,Plasma concentration of CH2107 (Molnupiravir),"[4]; female, beagle, 1 hr",120 ng/mL
same,Plasma concentration of CH2107 (Molnupiravir),"[4]; female, beagle, 4 hr",8.06 ng/mL
same,Plasma concentration of CH2107 (Molnupiravir),"[4]; female, beagle, 6 hr",5.45 ng/mL
same,Plasma concentration of CH2107 (Molnupiravir),"[4]; female, beagle, 8 hr",1.08 ng/mL
same,concentration at 0.5 hr,[4]; [8],499 ng/mL
same,concentration at 1 hr,[4]; [8],207 ng/mL
same,concentration at 4 hr,[4]; [8],8.06 ng/mL
same,concentration at 6 hr,[4]; [8],5.45 ng/mL
same,concentration at 8 hr,[4]; [8],1.08 ng/mL
same,Tmax,"[4]; female, beagle",30 min
same,AUCINF of CH2107 (Molnupiravir),"[4]; male, Beagle",1246 ng·h/mL
same,AUClast of CH2107 (Molnupiravir),"[4]; male, Beagle",1245 ng·h/mL
same,Cmax of CH2107 (Molnupiravir),"[4]; male, Beagle",1680 ng/mL
same,MRTINF of CH2107 (Molnupiravir),"[4]; male, Beagle",34 min
same,T1/2 of CH2107 (Molnupiravir),"[4]; male, Beagle",21.1 min
same,Plasma concentration of CH2107 (Molnupiravir),"[4]; male, Beagle, 0.25 hr",1680 ng/mL
same,AUC(0-inf),"[4]; male, Beagle",1100 ng·h/mL
same,AUC(0-t),"[4]; male, Beagle",1100 ng·h/mL
same,MRT inf,"[4]; male, Beagle",27.7 min
same,half-life,"[4]; male, Beagle",12.7 min
same,Plasma concentration of CH2107 (Molnupiravir),"[4]; male, beagle, 0.5 hr",1430 ng/mL
same,Plasma concentration of CH2107 (Molnupiravir),"[4]; male, beagle, 2 hr",11.1 ng/mL
same,Plasma concentration of CH2107 (Molnupiravir),"[4]; male, beagle, 4 hr",1.44 ng/mL
same,Cmax,"[4]; male, beagle",1450 ng/mL
same,concentration at 0.25 hr,[4]; [9],1450 ng/mL
same,concentration at 0.5 hr,[4]; [9],1420 ng/mL
same,concentration at 2 hr,[4]; [9],9.81 ng/mL
same,concentration at 4 hr,[4]; [9],1.44 ng/mL
same,Tmax,"[4]; male, beagle",15 min
same,Reduction in patients progressing into hospitalizations,[5],50%
same,CC50 at 4 days,[6],> 100 µM
